Measurements published in publication PMC12610573, “New Chlormequat-Based Ionic Liquids as Plant Resistance Inducers” (Molecules, 2025).

What was measured:
[1] = system: Tobamovirus tabaci (tobacco mosaic virus, TMV) on Nicotiana tabacum cv. Xanthi; assay: SAR induction assay: necrotic area after TMV inoculation of sprayed tobacco; format: in vivo; details: for SAR Induction (percentage of necrotic area on leaves): TMV inoculation after 7 days, read 7 days later, UTC 34.54; for pest or weed control at 125 µg/mL / pest or weed control at 250 µg/mL: topical, compared with untreated control plants, read-out: Reduction in Necrotic Area; for Percentage of necrotic spot coverage (leaf shown in supplementary figure): single leaf image
Description: Plants of Nicotiana tabacum cv. Xanthi were grown under greenhouse conditions at 25 °C and 50% relative humidity, under natural daylight during the May–August growing season, with a natural photoperiod. The plants were sprayed with solutions containing the tested compounds.
In all experiments, the TMV SL-1 isolate Tobamovirus (TMV) was used. To obtain a viral inoculum, Nicotiana tabacum cv. Samsun plants were sap-inoculated with previously virus-infected plant material. After the appearance of disease symptoms on the infected plants (leaf mosaic), the virus was isolated by sucrose density gradient centrifugation with 0.01 M Tris-HCl, pH 7.0, to prepare the infectious inoculum. The concentration of virus in the obtained preparation was determined spectrophotometrically. The samples of TMV were stored at −20 °C until use.
The tested active substances at a given concentration were sprayed on tobacco plants with three fully developed leaves. The volume of working solution used was equal to 10 mL per plant. The compounds were dissolved in a water/propylene glycol solution (95/5, v/v). The plants of the untreated control variant were sprayed with a water/propylene glycol solution (95/5, v/v) that was used for the preparation of solutions of the tested compounds. After seven days, the plants were mechanically inoculated using purified viral preparations (0.01 ng/mL as described in [34]).
The plants were inoculated with the TMV inoculum at a concentration of 3.8 × 10^−4 ng per leaf. For each variant of treatment, 3 plants were sprayed, and 3 leaves of each plant were analyzed. The entire experiment was performed in 2 replicates. Necrotic areas on the leaves were determined using ImageJ software.
The surface of a leaf or an area with necrotic spots is represented by a set of pixels in the image, which are counted by the program. Reduction in necrotic area (ISAR) is expressed by the following formula:(1) ISAR=100−(At/Ac∗100) where At is the ratio of the area of necrotic spots caused by viral infection that appeared on the leaf treated with the test substance to the whole area of the leaf; Ac is the ratio of the area of the necrotic spots caused by viral infection that appeared on the leaf of the control plant to the whole area of the leaf.
(§1) Statistical significance of the effect of the treatments of plants with tested compounds on the phytotoxicity and SAR induction was assessed with the ANOVA test performed using the Statistica program StatSoft with software version 9.1 (StatSoft Sp. z o.o., Kraków, Poland). The statistical assumptions of normality and homogeneity of variances were verified prior to conducting the ANOVA tests. Differences between the means were estimated with Tukey’s HSD test at the significance level of p = 0.05.

[2] = system: radish (Raphanus sativus) sprouts; assay: Phytotoxicity test on radish sprouts; format: in vivo; details: for Reduction in Sprout Mass: compared with untreated control; for Mass of 25 Sprouts: radish, 5 days, UTC 3.09 g
Description: Twenty five seeds of radish (Raphanus sativus) were placed on a filter tissue in a Petri dish. […] Then, sprouts were weighted. All variants of treatment were tested together, with 3 replications (plates) in each of 2 cycles performed. Results were subjected to statistical analysis as described in Section 4.8.
as §1

Row | SMILES | SAR Induction (percentage of necrotic area on leaves) ([1]; 125 mg/L spray) | SAR Induction (percentage of necrotic area on leaves) ([1]; 250 mg/L spray) | pest or weed control at 125 µg/mL ([1]; 125 mg/L) | pest or weed control at 250 µg/mL ([1]; 250 mg/L) | Reduction in Sprout Mass ([2]; 125 mg/L) | Mass of 25 Sprouts ([2]; 125 mg/L) | Reduction in Sprout Mass ([2]; 250 mg/L) | Mass of 25 Sprouts ([2]; 250 mg/L) | Percentage of necrotic spot coverage (leaf shown in supplementary figure) ([1]; 125 mg/L) | Percentage of necrotic spot coverage (leaf shown in supplementary figure) ([1]; 250 mg/L)
1 | O=C(O)c1cc(Cl)nc(Cl)c1 [2,6-dichloroisonicotinic acid] | 18.15 cd B % | 14.90 f AB % | 47.5% | 56.9% | 40.29% | 1.85 ab B g | 54.31% | 1.41 d A g | – | –
2 | O=C(O)c1cc(Cl)cc(Cl)c1O [3,5-dichlorosalicylic acid] | 15.03 cd B % | 7.51 bcd A % | 56.5% | 78.3% | 32.96% | 2.07 bcd B g | 59.49% | 1.25 cd A g | – | –
3 | O=C(O)c1cccc(Cl)c1O [3-chlorosalicylic acid] | 4.95 a B % | 2.59 a AB % | 85.7% | 92.5% | 47.03% | 1.64 a B g | 72.65% | 0.85 a A g | 2.62% | 2.30%
4 | O=C(O)c1ccc(Cl)cc1O [4-chlorosalicylic acid] | 17.06 cd C % | 8.68 cde AB % | 50.6% | 74.9% | 46.55% | 1.65 a B g | 68.45% | 0.98 ab A g | – | –
5 | O=C(O)c1cc(Cl)ccc1O [5-chlorosalicylic acid] | 4.23 a B % | 3.28 ab AB % | 87.8% | 90.5% | 37.16% | 1.94 abc B g | 59.87% | 1.24 cd A g | 2.98% | 1.28%
6 | O=C(O)c1ccncc1 [Isonicotinic acid] | 31.12 gh B % | 25.58 g A % | 9.9% | 26% | 29.07% | 2.19 cde B g | 42.83% | 1.77 e A g | – | –
